Experimental findings from patent publication US9682969B2, “Phthalazinone compounds and methods for the treatment of cystic fibrosis” (FLATLEY DISCOVERY LAB, LLC, priority 2013, dated 2017) are described below.

Bounds are passed on as bounds.

For this assay, the target named is human F508del CFTR (Homo sapiens (Human), UniProt P13569, DEL508-508). In words: CFTR-YFP High Throughput Assay (YFP flux assay, FRT cells). In kind it is cell-based. Particulars: FRT cells expressing human F508del CFTR and YFP. The method, then: This protocol is designed to selectively screen small molecule compounds for F508del CFTR corrector activities in the YFP (yellow fluorescent protein) flux assay. In this protocol, the cells are incubated with testing compounds for 24 hours, washed with PBS, stimulated with forskolin and a standard potentiator, and fluorescence in each plate well is measured kinetically read on a 384-well plate reader, such as the Hamamatsu FDSS-6000.
Chain of human F508del CFTR (P13569 other isoform, or with tags, fused parts or gaps del F508-F508): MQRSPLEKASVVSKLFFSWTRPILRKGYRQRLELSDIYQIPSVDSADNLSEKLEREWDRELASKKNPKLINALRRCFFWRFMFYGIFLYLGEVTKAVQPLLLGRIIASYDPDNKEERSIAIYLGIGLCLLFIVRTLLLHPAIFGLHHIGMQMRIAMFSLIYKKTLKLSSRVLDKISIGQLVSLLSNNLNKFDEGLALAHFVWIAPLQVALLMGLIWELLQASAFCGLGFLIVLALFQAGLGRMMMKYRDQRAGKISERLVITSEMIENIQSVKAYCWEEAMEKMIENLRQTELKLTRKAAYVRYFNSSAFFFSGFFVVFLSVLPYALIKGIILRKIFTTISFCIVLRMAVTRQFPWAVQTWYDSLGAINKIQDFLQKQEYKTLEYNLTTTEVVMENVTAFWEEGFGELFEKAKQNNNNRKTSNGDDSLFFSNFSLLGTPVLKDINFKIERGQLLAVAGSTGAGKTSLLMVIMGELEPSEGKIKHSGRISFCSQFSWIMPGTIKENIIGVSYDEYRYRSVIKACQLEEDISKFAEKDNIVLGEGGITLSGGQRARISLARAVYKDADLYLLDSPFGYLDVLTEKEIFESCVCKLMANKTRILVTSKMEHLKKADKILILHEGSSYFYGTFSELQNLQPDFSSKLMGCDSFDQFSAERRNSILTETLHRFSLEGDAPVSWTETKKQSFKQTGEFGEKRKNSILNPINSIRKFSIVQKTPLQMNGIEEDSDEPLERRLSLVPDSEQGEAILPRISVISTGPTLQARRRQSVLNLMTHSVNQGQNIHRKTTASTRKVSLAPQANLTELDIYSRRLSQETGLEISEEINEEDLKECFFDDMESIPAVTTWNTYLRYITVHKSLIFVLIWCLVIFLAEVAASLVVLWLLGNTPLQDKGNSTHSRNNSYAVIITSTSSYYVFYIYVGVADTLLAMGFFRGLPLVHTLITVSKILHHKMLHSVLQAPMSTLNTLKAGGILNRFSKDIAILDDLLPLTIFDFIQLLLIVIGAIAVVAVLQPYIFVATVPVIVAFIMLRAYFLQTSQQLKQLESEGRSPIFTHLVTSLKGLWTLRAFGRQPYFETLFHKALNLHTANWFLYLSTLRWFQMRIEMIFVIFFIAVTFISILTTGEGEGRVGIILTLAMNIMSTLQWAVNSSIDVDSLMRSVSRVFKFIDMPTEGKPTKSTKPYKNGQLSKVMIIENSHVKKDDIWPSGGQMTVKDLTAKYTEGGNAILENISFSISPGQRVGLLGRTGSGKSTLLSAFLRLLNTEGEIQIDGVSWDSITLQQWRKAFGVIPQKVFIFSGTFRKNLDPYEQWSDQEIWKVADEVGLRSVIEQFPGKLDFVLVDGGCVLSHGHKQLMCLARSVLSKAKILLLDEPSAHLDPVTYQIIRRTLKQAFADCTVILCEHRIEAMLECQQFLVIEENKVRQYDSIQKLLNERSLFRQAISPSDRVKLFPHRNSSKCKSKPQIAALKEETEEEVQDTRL
YFP fluorescence intensity values are acquired at high speed before and after iodide buffer is injected to the assay cells. Iodide enters the cells via active CFTR channels in the plasma membrane, and quenches the YFP fluorescence. The rate of fluorescence quenching is proportionate to the total CFTR activity in the cell membrane. F508del CFTR correctors increase the number of CFTR molecules in the testing cell plasma membrane, and thereby accelerate YFP quenching.
This method was initially developed for bench top plate readers (Galietta, J, Jayaraman, S and Verkman, A S. Cell-based assay for high-throughput quantitative screening of CFTR chloride transport agonists. Am. J. Physiol. Cell Physiol. (2001), 281: C173), and was adapted to the HTS format (Sui J, Cotard S, Andersen J, Zhu P, Staunton J, Lee M, Lin S. Optimization of a Yellow fluorescent protein-based iodide influx high-throughput screening assay for cystic fibrosis transmembrane conductance regulator (CFTR) modulators. Assay Drug Dev Technol. (2010), 8: 656-668).
Fisher Rat Thyroid (FRT) cells stably expressing both human F508del CFTR and a halide-sensitive yellow fluorescent protein (YFP-H148Q/I152L 25,22) (Galietta et al. Am. J. Physiol Cell Physiol 281(5), C1734, 2001) were cultured on plastic surface in Coon's modified Ham's F12 medium supplemented with FBS 10%, L-glutamine 2 mM, penicillin 100 U/ml, and streptomycin […]. G418 (0.75-1.0 mg/ml) and zeocin (3.2 ug/ml) were used for selection of FRT cells expressing F508del CFTR and YFP. For primary screening, FRT cells were plated into 384-well black wall, transparent bottom microtiter plates (Costar; Corning Inc.) at a cell density of 20,000-40,000 per well. Test compound was applied to the cells at varying concentrations ranging from 2 nM-40 μM in either a 2-fold or 3-fold dilution series. Cells were incubated in a cell culture incubator at 37° C. with 5% CO2 for 24-26 h. Assay plates were washed with DPBS media (Thermo, cat# SH30028.02) to remove unbound cells and compound. Stimulation media (25 μL) containing 20 μM Forskolin & 30 μM P3 [6-(Ethyl-phenyl-sulfonyl)-4-oxo-1,4-dihydro-quinoline-3-carboxylic acid 2-methoxy-benzylamide] in Hams F-12 coon's modified media was added to the plate wells and incubated at room temperature for 60-120 min. 25 μL of HEPES-PBS-I buffer (10 mM HEPES, 1 mM MgCl2, 3 mM KCl, 1 mM CaCl2, 150 mM NaI) was then added and fluorescence quench curves (Excitation 500 nm/Emission 540 nm; exposure 136 ms) were immediately recorded on an FDSS-6000 plate reader (Hamamatsu). Quench rates were derived from least squares fitting of the data as described by Sui et al (2010).
This protocol is designed to selectively screen small molecule compounds for F508del CFTR potentiator activities in the YFP (yellow fluorescent protein) flux assay. Such compounds act acutely to stimulate CFTR already expressed on the membrane surface. In this protocol, the cells are incubated at 27° C. for 24 hours to homogeneously boost F508del CFTR expression in the cell membrane (low temperature correction), washed with PBS, treated with test compound, and CFTR activity is stimulated with forskolin for 1-2 hr. Measurement of ion flux is initiated by addition of iodide-containing buffer, and YFP quenching is kinetically recorded using a 384-well plate reader, such as the Hamamatsu FDSS-6000.
YFP fluorescence intensity values are acquired at high speed over a 1 min time course before and after iodide buffer is injected to the assay cells. […]

A word on the EC50: it is the concentration needed to bring the measured effect to its halfway point. Consider `Cc1nc2ccc(N(C)C(=O)Cn3nc(-c4cccc(Cl)c4)c4ccc(OCC5CC5)cc4c3=O)cc2o1` [Example 24, 2-(4-(3-chlorophenyl)-7-(cyclopropylmethoxy)-1-oxophthalazin-2(1H)-yl)-N-methyl-N-(2-methylbenzo[d]oxazol-6-yl)acetamide], for which the EC50 is below 10 µM. With `COc1ccc2c(-c3cccc(F)c3)nn(CC(=O)N(C)c3ccc4nc(C)oc4c3)c(=O)c2c1` [Example 3, 2-(4-(3-fluorophenyl)-7-methoxy-1-oxophthalazin-2(1H)-yl)-N-methyl-N-(2-methylbenzo[d]oxazol-6-yl)acetamide] the figure was below 10 µM; with `CCN(C(=O)Cn1nc(-c2cccc(Cl)c2)c2ccc(OC)cc2c1=O)c1ccc2nc(C)oc2c1` [Example 9, 2-(4-(3-chlorophenyl)-7-methoxy-1-oxophthalazin-2(1H)-yl)-N-ethyl-N-(2-methylbenzo[d]oxazol-6-yl)acetamide], below 10 µM; with `Cc1nc2ccc(N(C)C(=O)Cn3nc(-c4cccc(Cl)c4)c4ccccc4c3=O)cc2o1` [Example 1, 2-(4-(3-chlorophenyl)-1-oxophthalazin-2(1H)-yl)-N-methyl-N-(2-methylbenzo[d]oxazol-6-yl)acetamide], below 10 µM.

For the compound `COc1cc2c(=O)n(CC(=O)N(C)c3ccc4nc(C)oc4c3)nc(-c3cccc(Cl)c3)c2cc1Cl` [Example 11, 2-(6-chloro-4-(3-chlorophenyl)-7-methoxy-1-oxophthalazin-2(1H)-yl)-N-methyl-N-(2-methylbenzo[d]oxazol-6-yl)acetamide], the EC50 was below 10 µM. Next, `[2H]C([2H])([2H])N(C(=O)Cn1nc(-c2cccc(Cl)c2)c2ccc(OC(C)C)cc2c1=O)c1ccc2nc(C)oc2c1` [Example 20, 2-(4-(3-chlorophenyl)-7-isopropoxy-1-oxophthalazin-2(1H)-yl)-N-(methyl-d3)-N-(2-methylbenzo[d]oxazol-6-yl)acetamide]: below 10 µM. With `COc1ccc2c(-c3cccc(Cl)c3)nn(CC(=O)N(c3ccc4nc(C)oc4c3)C3CC3)c(=O)c2c1` [Example 5, 2-(4-(3-chlorophenyl)-7-methoxy-1-oxophthalazin-2(1H)-yl)-N-cyclopropyl-N-(2-methylbenzo[d]oxazol-6-yl)acetamide] the figure was below 10 µM. With `Cc1nc2ccc(N(C)C(=O)Cn3nc(-c4cccc(Cl)c4)c4ccc(OC5CCCCC5)cc4c3=O)cc2o1` [Example 26, 2-(4-(3-chlorophenyl)-7-(cyclohexyloxy)-1-oxophthalazin-2(1H)-yl)-N-methyl-N-(2-methylbenzo[d]oxazol-6-yl)acetamide] the figure was below 10 µM; with `Cc1nc2ccc(N(C)C(=O)Cn3nc(-c4cccc(Cl)c4)c4ccc(OC(C)C)cc4c3=O)cc2o1` [Example 25, 2-(4-(3-chlorophenyl)-7-isopropoxy-1-oxophthalazin-2(1H)-yl)-N-methyl-N-(2-methylbenzo[d]oxazol-6-yl)acetamide], below 10 µM. Take `Cc1nc2ccc(N(C)C(=O)Cn3nc(-c4cccc(F)c4)c4ccc(OC5CCOCC5)cc4c3=O)cc2o1` [Example 27, 2-(4-(3-fluorophenyl)-1-oxo-7-((tetrahydro-2H-pyran-4-yl)oxy)phthalazin-2(1H)-yl)-N-methyl-N-(2-methylbenzo[d]oxazol-6-yl)acetamide]: the EC50 is below 10 µM. `COc1ccc2c(-c3cccc(F)c3)nn(CC(=O)N(c3ccc4nc(C)oc4c3)C3CC3)c(=O)c2c1` [Example 12, N-cyclopropyl-2-(4-(3-fluorophenyl)-7-methoxy-1-oxophthalazin-2(1H)-yl)-N-(2-methylbenzo[d]oxazol-6-yl)acetamide]: the EC50 is below 10 µM. With `CCOc1ccc2c(-c3cccc(Cl)c3)nn(CC(=O)N(c3ccc4nc(C)oc4c3)C3CC3)c(=O)c2c1` [Example 18, 2-(4-(3-chlorophenyl)-7-ethoxy-1-oxophthalazin-2(1H)-yl)-N-cyclopropyl-N-(2-methylbenzo[d]oxazol-6-yl)acetamide] the figure was below 10 µM. Next, `[2H]C([2H])(C)N(C(=O)Cn1nc(-c2cccc(Cl)c2)c2ccc(OC)cc2c1=O)c1ccc2nc(C)oc2c1` [Example 7, 2-(4-(3-chlorophenyl)-7-methoxy-1-oxophthalazin-2(1H)-yl)-N-(ethyl-1,1-d2)-N-(2-methylbenzo[d]oxazol-6-yl)acetamide]: below 10 µM. With `Cc1nc2ccc(N(C)C(=O)Cn3nc(-c4cccc(F)c4)c4ccc(OC5CCCCC5)cc4c3=O)cc2o1` [Example 28, 2-(7-(cyclohexyloxy)-4-(3-fluorophenyl)-1-oxophthalazin-2(1H)-yl)-N-methyl-N-(2-methylbenzo[d]oxazol-6-yl)acetamide] the figure was below 10 µM; with `COc1cc2c(=O)n(CC(=O)N(C)c3ccc4nc(C)oc4c3)nc(-c3cccc(F)c3)c2cc1Cl` [Example 10, 2-(6-chloro-4-(3-fluorophenyl)-7-methoxy-1-oxophthalazin-2(1H)-yl)-N-methyl-N-(2-methylbenzo[d]oxazol-6-yl)acetamide], below 10 µM; with `Cc1nc2ccc(N(C)C(=O)Cn3nc(-c4cccc(F)c4)c4ccc(O)cc4c3=O)cc2o1` [Example 13, 2-(4-(3-fluorophenyl)-7-hydroxy-1-oxophthalazin-2(1H)-yl)-N-methyl-N-(2-methylbenzo[d]oxazol-6-yl)acetamide], below 10 µM. On to `CCN(C(=O)Cn1nc(-c2cccc(F)c2)c2ccc(OC)cc2c1=O)c1ccc2nc(C)oc2c1` [Example 8, N-ethyl-2-(4-(3-fluorophenyl)-7-methoxy-1-oxophthalazin-2(1H)-yl)-N-(2-methylbenzo[d]oxazol-6-yl)acetamide], for which the EC50 is below 10 µM. Next, `Cc1nc2ccc(N(C)C(=O)Cn3nc(-c4cccc(F)c4)c4ccccc4c3=O)cc2o1` [Example 2, 2-(4-(3-fluorophenyl)-1-oxophthalazin-2(1H)-yl)-N-methyl-N-(2-methylbenzo[d]oxazol-6-yl)acetamide]: below 10 µM; `Cc1nc2ccc(N(C)C(=O)Cn3nc(-c4cccc(Cl)c4)c4ccc(OC5CCOCC5)cc4c3=O)cc2o1` [Example 29, 2-(4-(3-chlorophenyl)-1-oxo-7-((tetrahydro-2H-pyran-4-yl)oxy)phthalazin-2(1H)-yl)-N-methyl-N-(2-methylbenzo[d]oxazol-6-yl)acetamide]: below 10 µM; `CCOc1cc2c(=O)n(CC(=O)N(C)c3ccc4nc(C)oc4c3)nc(-c3cccc(F)c3)c2cc1Cl` [Example 30, 2-(6-chloro-7-ethoxy-4-(3-fluorophenyl)-1-oxophthalazin-2(1H)-yl)-N-methyl-N-(2-methylbenzo[d]oxazol-6-yl)acetamide]: below 10 µM. With `CCOc1cc2c(=O)n(CC(=O)N(C)c3ccc4nc(C)oc4c3)nc(-c3cccc(Cl)c3)c2cc1Cl` [Example 31, 2-(6-chloro-4-(3-chlorophenyl)-7-ethoxy-1-oxophthalazin-2(1H)-yl)-N-methyl-N-(2-methylbenzo[d]oxazol-6-yl)acetamide] the figure was below 10 µM; with `[2H]C([2H])([2H])N(C(=O)Cn1nc(-c2cccc(Cl)c2)c2ccc(OCC3CC3)cc2c1=O)c1ccc2nc(C)oc2c1` [Example 23, 2-(4-(3-chlorophenyl)-7-(cyclopropylmethoxy)-1-oxophthalazin-2(1H)-yl)-N-(methyl-d3)-N-(2-methylbenzo[d]oxazol-6-yl)acetamide], below 10 µM; with `CCOc1ccc2c(-c3cccc(F)c3)nn(CC(=O)N(C)c3ccc4nc(C)oc4c3)c(=O)c2c1` [Example 17, 2-(7-ethoxy-4-(3-fluorophenyl)-1-oxophthalazin-2(1H)-yl)-N-methyl-N-(2-methylbenzo[d]oxazol-6-yl)acetamide], below 10 µM.
